These results are taken from US20180237441A1, “Chemical Compounds” (GlaxoSmithKline Intellectual Property (No.2) Limited, priority 2015, published 2018).

Structures are written as SMILES. Read-outs that look alike come from different tables or passages of the source. A value given as a limit tells only on which side of the number the result lay.

For the assay, the target named is T1, PERK (Homo sapiens, UniProt Q9NZJ5).
T1 sequence (Q9NZJ5 30-1116): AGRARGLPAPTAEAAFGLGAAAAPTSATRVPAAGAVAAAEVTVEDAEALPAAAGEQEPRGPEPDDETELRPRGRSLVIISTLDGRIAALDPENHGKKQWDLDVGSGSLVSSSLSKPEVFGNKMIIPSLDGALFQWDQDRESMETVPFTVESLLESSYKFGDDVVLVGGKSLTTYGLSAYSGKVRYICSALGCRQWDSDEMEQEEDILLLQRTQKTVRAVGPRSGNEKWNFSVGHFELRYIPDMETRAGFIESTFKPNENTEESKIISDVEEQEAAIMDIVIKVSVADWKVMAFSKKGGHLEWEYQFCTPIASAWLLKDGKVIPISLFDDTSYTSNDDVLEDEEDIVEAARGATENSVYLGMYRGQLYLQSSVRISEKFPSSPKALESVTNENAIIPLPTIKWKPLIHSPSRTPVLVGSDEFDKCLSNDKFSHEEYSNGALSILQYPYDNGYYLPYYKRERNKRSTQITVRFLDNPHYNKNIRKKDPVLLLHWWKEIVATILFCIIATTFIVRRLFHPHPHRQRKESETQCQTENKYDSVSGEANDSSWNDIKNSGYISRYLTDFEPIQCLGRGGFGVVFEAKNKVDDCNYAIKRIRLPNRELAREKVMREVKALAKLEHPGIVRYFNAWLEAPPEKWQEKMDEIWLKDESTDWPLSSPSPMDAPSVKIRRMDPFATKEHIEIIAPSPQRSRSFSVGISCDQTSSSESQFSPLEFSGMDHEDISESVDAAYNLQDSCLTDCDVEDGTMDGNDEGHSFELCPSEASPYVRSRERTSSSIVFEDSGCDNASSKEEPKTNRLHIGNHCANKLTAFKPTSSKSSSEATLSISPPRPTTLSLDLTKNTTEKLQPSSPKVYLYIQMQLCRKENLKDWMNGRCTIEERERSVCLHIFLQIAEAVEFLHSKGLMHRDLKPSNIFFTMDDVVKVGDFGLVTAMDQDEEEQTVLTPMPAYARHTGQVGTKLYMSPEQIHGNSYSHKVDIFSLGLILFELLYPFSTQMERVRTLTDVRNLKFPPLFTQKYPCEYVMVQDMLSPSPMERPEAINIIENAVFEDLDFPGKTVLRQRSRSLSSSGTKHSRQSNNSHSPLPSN
As to the kind of experiment: PERK enzyme assay (HTRF). The format is biochemical. The settings on record: at least one experimental run. In a few lines:
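HTRF read-out after 2 h of EDTA-quenched reactions, detecting phospho-eIF2α with Eu/APC reagents, gave IC50 values. Reaction: 0.75 nM GST-PERK, 30–60 min compound pre-incubation (max 1% DMSO), then 60 min with 40 nM biotin-eIF2α and 500 μM ATP, HEPES pH 7.5 buffer.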

Setting [1] is: PERK Enzyme (500 μM ATP) IC50, read-out: PERK Activity.
The mark [2] stands for this setting: 500 μM ATP, read-out: PERK Enzyme (500 μM ATP) IC50.

Take `CN1C(=O)N(c2ccc(-c3cn(C)c4ncnc(N)c34)c(F)c2)CC1c1ccc(F)cc1F` (stereo not drawn) [Example 24, 1-(4-(4-amino-7-methyl-7H-pyrrolo[2,3-d]pyrimidin-5-yl)-3-fluorophenyl)-4-(2,4-difluorophenyl)-3-methylimidazolidin-2-one]: under setting [1], the IC50 lay within 100 to 1000 nM.

In the case of `CN1C(=O)N(c2ccc(-c3cn(C)c4ncnc(N)c34)c(F)c2)CC1c1cc(F)cc(F)c1` (stereo not drawn) [Example 25, 1-(4-(4-amino-7-methyl-7H-pyrrolo[2,3-d]pyrimidin-5-yl)-3-fluorophenyl)-4-(3,5-difluorophenyl)-3-methylimidazolidin-2-one], the IC50 was 74.2 nM under setting [2] and below 100 nM under setting [1].

Take `CN1C(=O)N(c2ccc(-c3cn(C)c4ncnc(N)c34)c(F)c2)CC1c1cccc(Cl)c1F` (stereo not drawn) [Example 26, 1-(4-(4-amino-7-methyl-7H-pyrrolo[2,3-d]pyrimidin-5-yl)-3-fluorophenyl)-4-(3-chloro-2-fluorophenyl)-3-methylimidazolidin-2-one]: the IC50 under setting [1] was 100 to 1000 nM.

`CCN1C(=O)N(c2ccc(-c3cn(C)c4ncnc(N)c34)c(F)c2)CC1c1cc(F)cc(Cl)c1` (stereo not drawn) [Example 27, 1-(4-(4-amino-7-methyl-7H-pyrrolo[2,3-d]pyrimidin-5-yl)-3-fluorophenyl)-4-(3-chloro-5-fluorophenyl)-3-ethylimidazolidin-2-one]: the IC50 under setting [1] was in the range of 100 to 1000 nM.

On to `Cn1cc(-c2ccc(N3CC(C4CCCC4)CC3=O)cc2F)c2c(N)ncnc21` (stereo not drawn) [Example 28, 1-(4-(4-amino-7-methyl-7H-pyrrolo[2,3-d]pyrimidin-5-yl)-3-fluorophenyl)-4-cyclopentylpyrrolidin-2-one], for which the IC50 under setting [1] fell in the range of 100 to 1000 nM.

For `Cn1cc(-c2ccc(N3CC(c4cc(F)cc(F)c4)CC3=O)cc2)c2c(N)ncnc21` (stereo not drawn) [Example 29, 1-(4-(4-amino-7-methyl-7H-pyrrolo[2,3-d]pyrimidin-5-yl)phenyl)-4-(3,5-difluorophenyl)pyrrolidin-2-one], the IC50 under setting [1] fell in the range of 100 to 1000 nM.

Consider `Cc1cc(C)cc(C2CC(=O)N(c3ccc(-c4cn(C)c5ncnc(N)c45)c(F)c3)C2)c1` (stereo not drawn) [Example 30, 1-(4-(4-amino-7-methyl-7H-pyrrolo[2,3-d]pyrimidin-5-yl)-3-fluorophenyl)-4-(3,5-dimethylphenyl)pyrrolidin-2-one], for which the IC50 under setting [1] is below 100 nM.

As to `Cn1cc(-c2ccc(N3CC(c4cc(F)ccc4F)CC3=O)cc2F)c2c(N)ncnc21` (stereo not drawn) [Example 31, 1-(4-(4-amino-7-methyl-7H-pyrrolo[2,3-d]pyrimidin-5-yl)-3-fluorophenyl)-4-(2,5-difluorophenyl)pyrrolidin-2-one], the IC50 under setting [1] was 100 to 1000 nM.

For `Cn1cc(-c2ccc(N3CC(c4cc(F)cc(F)c4)CC3=O)nc2)c2c(N)ncnc21` (stereo not drawn) [Example 32, 1-(5-(4-amino-7-methyl-7H-pyrrolo[2,3-d]pyrimidin-5-yl)pyridin-2-yl)-4-(3,5-difluorophenyl)pyrrolidin-2-one], under setting [1], the IC50 was 100 to 1000 nM.

Regarding `Cc1cccc(C2CC(=O)N(c3ccc(-c4cn(C)c5ncnc(N)c45)c(F)c3)C2)n1` (stereo not drawn) [Example 33, 1-(4-(4-amino-7-methyl-7H-pyrrolo[2,3-d]pyrimidin-5-yl)-3-fluorophenyl)-4-(6-methylpyridin-2-yl)pyrrolidin-2-one], the IC50 under setting [1] lay in the range of 100 to 1000 nM.

Take `Cn1cc(-c2ccc(N3CC(c4ccc(F)cc4F)CC3=O)cc2F)c2c(N)ncnc21` (stereo not drawn) [Example 34, 1-(4-(4-amino-7-methyl-7H-pyrrolo[2,3-d]pyrimidin-5-yl)-3-fluorophenyl)-4-(2,4-difluorophenyl)pyrrolidin-2-one]: the IC50 under setting [1] lay in the range of 100 to 1000 nM.

Turning to `Cn1cc(-c2ccc(N3CC(c4cccc(Cl)c4F)CC3=O)cc2F)c2c(N)ncnc21` (stereo not drawn) [Example 35, 1-(4-(4-amino-7-methyl-7H-pyrrolo[2,3-d]pyrimidin-5-yl)-3-fluorophenyl)-4-(3-chloro-2-fluorophenyl)pyrrolidin-2-one], under setting [1], the IC50 was 100 to 1000 nM.

In the case of `CCN1C(=O)N(c2ccc(-c3cn(C)c4ncnc(N)c34)c(F)c2)CC1c1cccc(C)c1` (stereo not drawn) [Example 36, 1-(4-(4-amino-7-methyl-7H-pyrrolo[2,3-d]pyrimidin-5-yl)-3-fluorophenyl)-3-ethyl-4-(m-tolyl)imidazolidin-2-one], the IC50 reads like this: under setting [2], 462 nM; under setting [1], 100 to 1000 nM.

`Cc1cccc(C2CN(c3ccc(-c4cn(C)c5ncnc(N)c45)c(F)c3)C(=O)N2C)c1` (stereo not drawn) [Example 39, 1-(4-(4-amino-7-methyl-7H-pyrrolo[2,3-d]pyrimidin-5-yl)-3-fluorophenyl)-3-methyl-4-(m-tolyl)imidazolidin-2-one]: the IC50 under setting [1] lay within 100 to 1000 nM.

Turning to `CN1C(=O)N(c2ccc(-c3cn(C)c4ncnc(N)c34)cn2)CC1c1cc(F)ccc1F` (stereo not drawn) [Example 40, 1-(5-(4-amino-7-methyl-7H-pyrrolo[2,3-d]pyrimidin-5-yl)pyridin-2-yl)-4-(2,5-difluorophenyl)-3-methylimidazolidin-2-one], the IC50 under setting [1] lay in the range of 100 to 1000 nM.

Turning to `CCN1C(=O)N(c2ccc(-c3cn(C)c4ncnc(N)c34)cn2)CC1c1cc(F)ccc1F` (stereo not drawn) [Example 41, 1-(5-(4-amino-7-methyl-7H-pyrrolo[2,3-d]pyrimidin-5-yl)pyridin-2-yl)-4-(2,5-difluorophenyl)-3-ethylimidazolidin-2-one], the IC50 under setting [1] was in the range of 100 to 1000 nM.

Consider `CCN1C(=O)N(c2ccc(-c3csc4ncnc(N)c34)c(F)c2)CC1c1cc(F)ccc1F` (stereo not drawn) [Example 42, 1-(4-(4-aminothieno[2,3-d]pyrimidin-5-yl)-3-fluorophenyl)-4-(2,5-difluorophenyl)-3-ethylimidazolidin-2-one], for which the IC50 under setting [1] is 100 to 1000 nM.

With `CC(C)n1cc(-c2ccc(N3CC(c4cc(F)ccc4F)N(C)C3=O)cc2F)c2c(N)ncnc21` (stereo not drawn) [Example 43, 1-(4-(4-amino-7-isopropyl-7H-pyrrolo[2,3-d]pyrimidin-5-yl)-3-fluorophenyl)-4-(2,5-difluorophenyl)-3-methylimidazolidin-2-one], the IC50 under setting [1] is below 100 nM.

For the compound `CCN1C(=O)N(c2ccc(-c3cn(C)c4ncnc(N)c34)c(F)c2)CC1c1cc(C2CC2)ccc1F` (stereo not drawn) [Example 48, 1-(4-(4-amino-7-methyl-7H-pyrrolo[2,3-d]pyrimidin-5-yl)-3-fluorophenyl)-4-(5-cyclopropyl-2-fluorophenyl)-3-ethylimidazolidin-2-one], under setting [1], the IC50 was 100 to 1000 nM.

For the compound `CN1C(=O)N(c2ccc(-c3cn(C)c4ncnc(N)c34)c(F)c2)CC1c1cc(C2CC2)ccc1F` (stereo not drawn) [Example 49, 1-(4-(4-amino-7-methyl-7H-pyrrolo[2,3-d]pyrimidin-5-yl)-3-fluorophenyl)-4-(5-cyclopropyl-2-fluorophenyl)-3-methylimidazolidin-2-one], the IC50 under setting [1] lay in the range of 100 to 1000 nM.

Turning to `CCN1C(=O)N(c2ccc(-c3cn(C)c4ncnc(N)c34)c(F)c2)CC1c1cccc(C)n1` (stereo not drawn) [Example 50, 1-(4-(4-amino-7-methyl-7H-pyrrolo[2,3-d]pyrimidin-5-yl)-3-fluorophenyl)-3-ethyl-4-(6-methylpyridin-2-yl)imidazolidin-2-one], the IC50 under setting [1] fell in the range of 100 to 1000 nM.

On to `CN1C(=O)N(c2ccc(-c3cn(C)c4ncnc(N)c34)c(F)c2)CC1c1cc(Cl)ccc1F` (stereo not drawn) [Example 53, 1-(4-(4-amino-7-methyl-7H-pyrrolo[2,3-d]pyrimidin-5-yl)-3-fluorophenyl)-4-(5-chloro-2-fluorophenyl)-3-methylimidazolidin-2-one], for which the IC50 under setting [1] is 100 to 1000 nM.
